Reference: patent US7767659B2, “Synthesis of naturally occurring ecteinascidins and related compounds” (Pharma Mar, S.A., priority 2002, dated 2010)

Assays:
K-562 = assay: Inhibition of cells growth by colorimetric assay (SRB); settings: Homo sapiens, K562, 48 h; for GI50: read-out: K562 GI50; for CC50: read-out: K562 LC50; for IC (TGI): read-out: K562 TGI
In short: (§1)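 Colorimetric SRB read (490 nm) on triplicate wells after 48 h at 37 °C, 5% CO2. Dose range 10 to 10^−8 μg/ml; 5×10^3 cells/well pre-attached 18 h.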

IGROV-1 = assay: as above; settings: Homo sapiens, IGROV-1, 48 h; for GI50: read-out: IGROV GI50; for CC50: read-out: IGROV LC50; for IC (TGI): read-out: IGROV TGI
In short: as §1

HeLa = assay: as above; settings: Homo sapiens, HeLa, 48 h; for GI50: read-out: HELA GI50; for CC50: read-out: HELA LC50; for IC (TGI): read-out: HELA TGI
In short: as §1

SK-BR-3 = assay: as above; settings: Homo sapiens, SK-BR-3, 48 h; for GI50: read-out: SK-BR3 GI50; for CC50: read-out: SK-BR3 LC50; for IC (TGI): read-out: SK-BR3 TGI
In short: as §1

LoVo-Dox = assay: as above; settings: Homo sapiens, 48 h; for GI50: read-out: LOVO-DOX GI50; for CC50: read-out: LOVO-DOX LC50; for IC (TGI): read-out: LOVO-DOX TGI
In short: as §1

PANC-1 = assay: as above; settings: Homo sapiens, PANC-1, 48 h; for GI50: read-out: PANC-1 GI50; for CC50: read-out: PANC-1 LC50; for IC (TGI): read-out: PANC-1 TGI
In short: as §1

HeLa-APL = assay: as above; settings: Homo sapiens, 48 h; for GI50: read-out: HELA-APL GI50; for CC50: read-out: HELA-APL LC50; for IC (TGI): read-out: HELA-APL TGI
In short: as §1

SK-MEL-28 = assay: as above; settings: Homo sapiens, SK-MEL-28, 48 h; for GI50: read-out: MEL-28 GI50; for CC50: read-out: MEL-28 LC50; for IC (TGI): read-out: MEL-28 TGI
In short: as §1

LNCaP = assay: as above; settings: Homo sapiens, LNCaP, 48 h; for GI50: read-out: LNCAP GI50; for CC50: read-out: LNCAP LC50; for IC (TGI): read-out: LNCAP TGI
In short: as §1

DU-145 = assay: as above; settings: Homo sapiens, DU-145, 48 h; for GI50: read-out: DU145 GI50; for CC50: read-out: DU145 LC50; for IC (TGI): read-out: DU145 TGI
In short: as §1

IGROV-ET = assay: as above; settings: Homo sapiens, 48 h; for GI50: read-out: IGROV-ET GI50; for CC50: read-out: IGROV-ET LC50; for IC (TGI): read-out: IGROV-ET TGI
In short: as §1

LoVo = assay: cells; settings: Homo sapiens, LoVo, 48 h; for GI50: read-out: LOVO GI50; for CC50: read-out: LOVO LC50; for IC (TGI): read-out: LOVO TGI
In short: as §1

A-549 = assay: cells; settings: Homo sapiens, A549, 48 h; for GI50: read-out: A549 GI50; for CC50: read-out: A549 LC50; for IC (TGI): read-out: A549 TGI
In short: as §1

HT-29 = assay: cells; settings: Homo sapiens, HT-29, 48 h; for GI50: read-out: HT29 GI50; for CC50: read-out: HT29 LC50; for IC (TGI): read-out: HT29 TGI
In short: as §1

## COc1c(C)cc2c(c1OC(=O)/C=C/c1ccccc1)[C@H]1N[C@@H](C2)[C@H](O)N2C1[C@@H]1SCC(NC(=O)C(F)(F)F)C(=O)OC[C@H]2c2c3c(c(C)c(OC(C)=O)c21)OCO3 (stereo partly drawn) [compound 40]
K-562
  GI50: 41.4 nM
  CC50: 776 nM
  IC (TGI): 131 nM
IGROV-1
  GI50: 91.3 nM
  CC50: 1280 nM
  IC (TGI): 317 nM
HeLa
  GI50: 111 nM
  CC50: 661 nM
  IC (TGI): 276 nM
SK-BR-3
  GI50: 42.6 nM
  CC50: 524 nM
  IC (TGI): 97.6 nM
LoVo-Dox
  GI50: 354 nM
  CC50: 2790 nM
  IC (TGI): 810 nM
PANC-1
  GI50: 321 nM
  CC50: 2570 nM
  IC (TGI): 747 nM
HeLa-APL
  GI50: 153 nM
  CC50: 775 nM
  IC (TGI): 344 nM
SK-MEL-28
  GI50: 162 nM
  CC50: 688 nM
  IC (TGI): 334 nM
LNCaP
  GI50: 48.1 nM
  CC50: 509 nM
  IC (TGI): 162 nM
DU-145
  GI50: 5630 nM
  CC50: 1630 nM
  IC (TGI): 160 nM
IGROV-ET
  GI50: 289 nM
  CC50: 980 nM
  IC (TGI): 533 nM
LoVo
  GI50: 213 nM
  CC50: 1680 nM
  IC (TGI): 552 nM
A-549
  GI50: 195 nM
  CC50: 1030 nM
  IC (TGI): 447 nM
HT-29
  GI50: 337 nM
  CC50: 3840 nM
  IC (TGI): 1050 nM

## C=CCN1[C@@H]2c3c(cc(C)c(OC)c3O)C[C@H]1[C@H](O)N1C2[C@@H]2SCC(NC(C)=O)C(=O)OC[C@H]1c1c3c(c(C)c(OC(C)=O)c12)OCO3 (stereo partly drawn) [compound 41]
K-562
  GI50: 20.4 nM
  CC50: 125 nM
  IC (TGI): 50.5 nM
IGROV-1
  GI50: 15.7 nM
  CC50: 121 nM
  IC (TGI): 43.7 nM
HeLa
  GI50: 28.2 nM
  CC50: 120 nM
  IC (TGI): 58.1 nM
SK-BR-3
  GI50: 32.3 nM
  CC50: 352 nM
  IC (TGI): 72.2 nM
LoVo-Dox
  GI50: 270 nM
  CC50: 14700 nM
  IC (TGI): 1180 nM
PANC-1
  GI50: 37.7 nM
  CC50: 14700 nM
  IC (TGI): 100 nM
HeLa-APL
  GI50: 30.1 nM
  CC50: 132 nM
  IC (TGI): 63.1 nM
SK-MEL-28
  GI50: 33.7 nM
  CC50: 123 nM
  IC (TGI): 64.5 nM
LNCaP
  GI50: 0.95 nM
  CC50: 92.8 nM
  IC (TGI): 31.4 nM
DU-145
  GI50: 45.3 nM
  CC50: 274 nM
  IC (TGI): 75.5 nM
IGROV-ET
  GI50: 41.8 nM
  CC50: 14700 nM
  IC (TGI): 87.1 nM
LoVo
  GI50: 37.8 nM
  CC50: 14700 nM
  IC (TGI): 94 nM
A-549
  GI50: 43.1 nM
  CC50: 125 nM
  IC (TGI): 73.5 nM
HT-29
  GI50: 42.7 nM
  CC50: 14700 nM
  IC (TGI): 120 nM
